# Assay results as given in patent publication US10993935B2, “Compositions and methods for treatment of lung infections” (priority 2018, dated 2021).
# System: P. aeruginosa PAO1 with bioluminescent operon (luxCDABE)
# Experiment: Murine pneumonia model, multiple-dose treatment, lung bacterial load
# Assay type: in vivo, DBA/2 mice
# Settings: 300 mg doses at 6, 8 and 10 h post-infection (3× TOB, or RFX then 2× TOB); lungs at 12, 18, 24 h
# Text: FIG. 6 is a graph showing that the addition of RFX to multiple treatments of TOB results in a decrease of CFU per milliliter of P. aeruginosa in mouse lungs. Plot showing the CFU per milliliter counts of mice after being infected with P. aeruginosa and left untreated, treated with multiple doses of TOB, or treated with multiple doses of TOB with addition of RFX. Data shown represent average of 2 mice per time point per group. Two-way ANOVA was used to test for statistical significance with a P value of <0.01 (****, P<0.0001).
# Female DBA/2 mice were infected at 0 hour and split into 3 experimental groups of 8: no treatment; treatment with 300 mg TOB at 6, 8, and 10 h post-infection; or treatment with 300 mg RFX at 6 h and 300 mg TOB at 8 and 10 h post-infection. Two mice from each group were sacrificed at 12, 18, and 24 h post-infection. Lungs from sacrificed mice were homogenized in 1% PPBS and tested for bacterial growth to determine CFU load per mouse. Bacteria grown were also imaged for evidence of bioluminescence. Two mice from each group were left to observe for survival.
# Based on the efficacy seen with the single dose treatment a multiple dose study was used to replicate clinical treatment conditions seen with CF infections. The efficacy of TOB in multiple doses with or without RFX was determined using the established lung infection model. […]
smiles,measurement,value
"NC[C@H]1O[C@H](O[C@H]2[C@H](O)[C@@H](O[C@H]3O[C@H](CO)[C@@H](O)[C@H](N)[C@H]3O)[C@H](N)C[C@@H]2N)[C@H](N)C[C@@H]1O [TOB, tobramycin]",bacterial growth in the lungs,around 10^8 CFUs
